Results from PubChem BioAssay AID1963831 (Molecular Pharmacology Branch, DTP, NCI, 2024).
pIC50: −log10 of the molar value.

System: 889142-216-R-J1-PDC complex spheroid viability
Assay: Anticancer human tumor 889142-216-R-J1-PDC patient-derived bladder carcinoma cell line growth inhibition [POLQ]
Settings: for pIC50: curve of first compound; for viability, T/C: stronger effect = lower value
Summary of the method: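 Patient-derived tumour cells were co-cultured with HUVEC and mesenchymal stem cells as multicellular spheroids at 37 °C. They were treated with POLQ inhibitors (novobiocin, ART-558, RP6685) alone or combined with other agents. Top concentrations were at or near clinical Cmax (otherwise 10 microM; SN-38 at 1 microM), decreasing in half-log steps.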

[1] = second compound 0.0316 µM, first compound 0.0316 µM
[2] = second compound 0.0316 µM, first compound 0.1 µM
[3] = second compound 0.0316 µM, first compound 0.316 µM
[4] = second compound 0.0316 µM, first compound 1 µM
[5] = second compound 0.1 µM, first compound 0.0316 µM
[6] = second compound 0.1 µM, first compound 0.1 µM
[7] = second compound 0.1 µM, first compound 0.316 µM
[8] = second compound 0.1 µM, first compound 1 µM
[9] = second compound 0.316 µM, first compound 0.0316 µM
[10] = second compound 0.316 µM, first compound 0.1 µM
[11] = second compound 0.316 µM, first compound 0.316 µM
[12] = second compound 0.316 µM, first compound 1 µM
[13] = second compound 1 µM, first compound 0.0316 µM
[14] = second compound 1 µM, first compound 0.1 µM
[15] = second compound 1 µM, first compound 0.316 µM
[16] = second compound 1 µM, first compound 1 µM
[17] = second compound 3.16 µM, first compound 0.0316 µM
[18] = second compound 3.16 µM, first compound 0.1 µM
[19] = second compound 3.16 µM, first compound 0.316 µM
[20] = second compound 3.16 µM, first compound 1 µM
[21] = second compound 10 µM, first compound 0.0316 µM
[22] = second compound 10 µM, first compound 0.1 µM
[23] = second compound 10 µM, first compound 0.316 µM
[24] = second compound 10 µM, first compound 1 µM
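Further: spheroids exposed to compounds for seven days.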
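Wherever viability, T/C is given: 100% = DMSO vehicle control viability.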

COc1cc(C2c3cc4c(cc3C(OC3OC5COC(C)OC5C(O)C3O)C3COC(=O)C23)OCO4)cc(OC)c1O (centres undefined) + Nc1ccc(C#CCN(C(=O)Cc2ncc(C(F)(F)F)cc2C(F)(F)F)c2ccc(F)cc2)nn1
pIC50 (second compound 0.0316 µM): < 5.00
pIC50 (second compound 0.1 µM): < 5.00
pIC50 (second compound 0.316 µM): < 5.00
pIC50 (second compound 1 µM): 5.05
pIC50 (second compound 3.16 µM): < 5.00
pIC50 (second compound 10 µM): < 5.00
viability, T/C [1]: 90.8%
viability, T/C [2]: 92.8%
viability, T/C [3]: 86.8%
viability, T/C [4]: 60.5%
viability, T/C (second compound 0.0316 µM, first compound 3.16 µM): 96.8%
viability, T/C (second compound 0.0316 µM, first compound 10 µM): 62.9%
viability, T/C [5]: 99.5%
viability, T/C [6]: 101%
viability, T/C [7]: 69.3%
viability, T/C [8]: 60.2%
viability, T/C (second compound 0.1 µM, first compound 3.16 µM): 84.5%
viability, T/C (second compound 0.1 µM, first compound 10 µM): 61.5%
viability, T/C [9]: 116%
viability, T/C [10]: 86.2%
viability, T/C [11]: 78.8%
viability, T/C [12]: 69%
viability, T/C (second compound 0.316 µM, first compound 3.16 µM): 79.2%
viability, T/C (second compound 0.316 µM, first compound 10 µM): 54.4%
viability, T/C [13]: 121%
viability, T/C [14]: 95.6%
viability, T/C [15]: 80.5%
viability, T/C [16]: 58.2%
viability, T/C (second compound 1 µM, first compound 3.16 µM): 66%
viability, T/C (second compound 1 µM, first compound 10 µM): 56.9%
viability, T/C [17]: 104%
viability, T/C [18]: 78.2%
viability, T/C [19]: 72.2%
viability, T/C [20]: 59.8%
viability, T/C (second compound 3.16 µM, first compound 3.16 µM): 68.1%
viability, T/C (second compound 3.16 µM, first compound 10 µM): 61%
viability, T/C [21]: 86.7%
viability, T/C [22]: 104%
viability, T/C [23]: 79.9%
viability, T/C [24]: 74.3%
viability, T/C (second compound 10 µM, first compound 3.16 µM): 76.4%
viability, T/C (second compound 10 µM, first compound 10 µM): 62.9%

C=CCn1c(=O)c2cnc(Nc3ccc(N4CCN(C)CC4)cc3)nc2n1-c1cccc(C(C)(C)O)n1 + COC1C(OC(N)=O)C(O)C(Oc2ccc3c(O)c(NC(=O)c4ccc(O)c(CC=C(C)C)c4)c(=O)oc3c2C)OC1(C)C
pIC50 (second compound 0.0316 µM): < 6.00
pIC50 (second compound 0.1 µM): < 6.00
pIC50 (second compound 0.316 µM): < 6.00
pIC50 (second compound 1 µM): < 6.00
pIC50 (second compound 3.16 µM): < 6.00
pIC50 (second compound 10 µM): < 6.00
viability, T/C (second compound 0.0316 µM, first compound 0.00316 µM): 97.1%
viability, T/C (second compound 0.0316 µM, first compound 0.01 µM): 152%
viability, T/C [1]: 86.6%
viability, T/C [2]: 83.1%
viability, T/C [3]: 66.1%
viability, T/C [4]: 52%
viability, T/C (second compound 0.1 µM, first compound 0.00316 µM): 98.3%
viability, T/C (second compound 0.1 µM, first compound 0.01 µM): 111%
viability, T/C [5]: 108%
viability, T/C [6]: 81.2%
viability, T/C [7]: 60.9%
viability, T/C [8]: 57.5%
viability, T/C (second compound 0.316 µM, first compound 0.00316 µM): 100%
viability, T/C (second compound 0.316 µM, first compound 0.01 µM): 125%
viability, T/C [9]: 103%
viability, T/C [10]: 86.4%
viability, T/C [11]: 63.6%
viability, T/C [12]: 54.7%
viability, T/C (second compound 1 µM, first compound 0.00316 µM): 112%
viability, T/C (second compound 1 µM, first compound 0.01 µM): 110%
viability, T/C [13]: 113%
viability, T/C [14]: 89.5%
viability, T/C [15]: 68.6%
viability, T/C [16]: 57%
viability, T/C (second compound 3.16 µM, first compound 0.00316 µM): 90.2%
viability, T/C (second compound 3.16 µM, first compound 0.01 µM): 99.6%
viability, T/C [17]: 85.4%
viability, T/C [18]: 108%
viability, T/C [19]: 64.5%
viability, T/C [20]: 50.2%
viability, T/C (second compound 10 µM, first compound 0.00316 µM): 127%
viability, T/C (second compound 10 µM, first compound 0.01 µM): 116%
viability, T/C [21]: 97.8%
viability, T/C [22]: 85.9%
viability, T/C [23]: 62.5%
viability, T/C [24]: 51.8%
